Measurements published in patent US12006294B2, “Therapeutic compounds” (REGENTS OF THE UNIVERSITY OF MINNESOTA, priority 2017, dated 2024).
Structures can show the parent of a compound that is named as a salt. Where two headings read alike, the source gives them in different places.

System: Hela Cells
Assay: Cellular ER stress model (tunicamycin, WST-8 cell viability)
Conditions: Homo sapiens, HeLa, 48 h
[1] = read-out: % Cell Survival Cmpd(2.5 μM) + Tuni
[2] = read-out: Compounds ERS (vs Tn)
[3] = read-out: % Cell Survival Cmpd(2.5 μM) + Tuni, Hela cells, compound 2.5 μM + tunicamycin, WST-8 viability 48 hours after tunicamycin treatment
[4] = read-out: Compounds ERS (vs Tn), ERS activity vs Tuni = % cell survival (compound)/% cell survival (tunicamycin), compound 2.5 μM

| SMILES | viability at 2.5 µM [1] [%] | viability at 2.5 µM [2] [%] | viability at 2.5 µM [3] [%] | viability at 2.5 µM [4] [%] |
| --- | --- | --- | --- | --- |
| N=C(N)N/N=C/c1c(O)cccc1Cl [BC2-59-2] | 39 | 94 |  |  |
| NC(=S)N/N=C/c1c(F)cccc1Cl [JM1-113-2, (E)-2-(2-chloro-6-fluorobenzylidene)hydrazine-1-carbothioamide] |  |  | 27.6 | 40 |
| Cc1cccc(C)c1/C=N/NC(N)=S [JM1-121-2, (E)-2-(2,6-dimethylbenzylidene)hydrazine-1-carbothioamide] |  |  | 23.4 | 34 |
| NC(=S)N/N=C/c1ccc2ccccc2c1 [JM1-129-2, (E)-2-(naphthalen-2-ylmethylene)hydrazine-1-carbothioamide] |  |  | 24.1 | 35 |
| N=C(N)N/N=C/c1c(Br)cccc1[N+](=O)[O-] [JM1-175-2, (E)-2-(2-bromo-6-nitrobenzylidene)hydrazine-1-carboximidamide acetate] |  |  | 44.9 | 65 |
| N=C(N)N/N=C/c1cc(F)ccc1Cl [JM1-185-2, (E)-2-(2-chloro-5-fluorobenzylidene)hydrazine-1-carboximidamide acetate] |  |  | 54.4 | 79 |
| N=C(N)N/N=C/c1c(F)cccc1F [JM1-191-2, (E)-2-(2,6-difluorobenzylidene)hydrazine-1-carboximidamide acetate] |  |  | 45.7 | 66 |
| Nc1ccnn1-c1c(Cl)cccc1Cl [JM1-217-2, 1-(2,6-dichlorophenyl)-1H-pyrazol-5-amine] |  |  | 40.6 | 97 |
| N=C(N)N/N=C/c1cc(C(F)(F)F)ccc1Cl [JM1-221-2, (E)-2-(2-chloro-5-(trifluoromethyl)benzylidene)hydrazine-1-carboximidamide acetate] |  |  | 38.6 | 56 |
| N=C(N)N/N=C/c1c(F)cccc1C(F)(F)F [JM1-223-2, (E)-2-(2-fluoro-6-(trifluoromethyl)benzylidene)hydrazine-1-carboximidamide acetate] |  |  | 37.5 | 54 |
| CC/C(=N\NC(=N)N)c1cccc(Cl)c1 [JM1-257-2, (E)-2-(1-(3-chlorophenyl)propylidene)hydrazine-1-carboximidamide] |  |  | 34.6 | 50 |
| N=C(N)Nc1ccnn1-c1c(Cl)cccc1Cl [JM1-285-2, 1-(1-(2,6-dichlorophenyl)-1H-pyrazol-5-yl)guanidine] |  |  | 41.9 | 101 |
| Cc1cccc(C)c1NC1=NCCN1 [JM2-59-2, N-(2,6-dimethylphenyl)-4,5-dihydro-1H-imidazol-2-amine] | 46.2 | 67 |  |  |
| COc1cc(Cl)c(/C=N/NC(=N)N)c(Cl)c1 [JM2-63-2, (E)-2-(2,6-dichloro-4-methoxybenzylidene)hydrazine-1-carboximidamide] |  |  | 44.6 | 65 |
| Clc1cccc(Cl)c1/C=N/NC1=NCCN1 [JM2-83-2, (E)-2-(2-(2,6-dichlorobenzylidene)hydrazinyl)-4,5-dihydro-1H-imidazole hydrochloride] |  |  | 53.8 | 125 |
| Cc1cccc(C)c1/C=N/NC1=NCCN1 [JM2-85-2, (E)-2-(2-(2,6-dimethylbenzylidene)hydrazinyl)-4,5-dihydro-1H-imidazole hydrochloride] |  |  | 62.3 | 145 |

| SMILES | viability at 2.5 µM [1] [%] | viability at 2.5 µM [2] [%] | viability at 2.5 µM [3] [%] | viability at 2.5 µM [4] [%] |
| --- | --- | --- | --- | --- |
| Clc1cccc(Cl)c1CC1=NCCN1 [JM2-87-2, 2-(2,6-dichlorobenzyl)-4,5-dihydro-1H-imidazole] |  |  | 54.3 | 124 |
| O=[N+]([O-])c1cccc(Cl)c1/C=N/NC1=NCCN1 [JM2-89-2, (E)-2-(2-(2-chloro-6-nitrobenzylidene)hydrazinyl)-4,5-dihydro-1H-imidazole hydrochloride] |  |  | 56.9 | 130 |
| Clc1ccc(/C=N/NC2=NCCN2)cc1Cl [JM2-91-2, (E)-2-(2-(3,4-dichlorobenzylidene)hydrazinyl)-4,5-dihydro-1H-imidazole hydrochloride] |  |  | 54.5 | 124 |
| Fc1cccc(Cl)c1/C=N/NC1=NCCN1 [JM2-95-2, (E)-2-(2-(2-chloro-6-fluorobenzylidene)hydrazinyl)-4,5-dihydro-1H-imidazole hydrochloride] |  |  | 53 | 121 |
| Clc1cccc(Cl)c1NC1=NCCN1 [JM2-97-2, N-(2,6-dichlorophenyl)-4,5-dihydro-1H-imidazol-2-amine hydrochloride] | 63.1 | 147 |  |  |
| CC(C1=NCCN1)c1c(Cl)cccc1Cl (stereo not shown) [JM2-101-2, 2-(1-(2,6-dichlorophenyl)ethyl)-4,5-dihydro-1H-imidazole] |  |  | 49.5 | 107 |
| Fc1cccc(F)c1/C=N/NC1=NCCN1 [JM2-103-2, (E)-2-(2-(2,6-difluorobenzylidene)hydrazinyl)-4,5-dihydro-1H-imidazole hydrochloride] |  |  | 48.7 | 105 |
| O=[N+]([O-])c1cccc(Br)c1/C=N/NC1=NCCN1 [JM2-109-2, (E)-2-(2-(2-bromo-6-nitrobenzylidene)hydrazinyl)-4,5-dihydro-1H-imidazole hydrochloride] |  |  | 50.2 | 108 |
| Clc1ccccc1/C=N/NC1=NCCN1 [JM2-113-2, (E)-2-(2-(2-chlorobenzylidene)hydrazinyl)-4,5-dihydro-1H-imidazole hydrochloride] |  |  | 35.2 | 111 |
| Fc1ccccc1/C=N/NC1=NCCN1 [JM2-115-2, (E)-2-(2-(2-fluorobenzylidene)hydrazinyl)-4,5-dihydro-1H-imidazole hydrochloride] |  |  | 35.6 | 112 |
| FC(F)(F)c1cccc(Cl)c1/C=N/NC1=NCCN1 [JM2-131-2, (E)-2-(2-(2-chloro-6-(trifluoromethyl)benzylidene)hydrazinyl)-4,5-dihydro-1H-imidazole hydrochloride] |  |  | 62.6 | 198 |
| CNC(=N)N/N=C/c1c(Cl)cccc1Cl [JM2-171-2, (E)-2-(2,6-dichlorobenzylidene)-N-methylhydrazine-1-carboximidamide hydroiodide] |  |  | 67 | 212 |
| N=C(N/N=C/c1c(Cl)cccc1Cl)Nc1ccccc1 [JM2-175-2, (E)-2-(2,6-dichlorobenzylidene)-N-phenylhydrazine-1-carboximidamide hydroiodide] |  |  | 34.3 | 108 |
| N=C(N)NNCc1c(Cl)cccc1Cl [JM2-185-2] |  |  | 31.7 | 100 |
| Brc1ccccc1/C=N/NC1=NCCN1 [JM2-191-2, (E)-2-(2-(2-bromobenzylidene)hydrazinyl)-4,5-dihydro-1H-imidazole hydrochloride] |  |  | 39.5 | 125 |
| N=C(N)N/N=C/c1c(Cl)cc(OCc2ccccc2)cc1Cl [JM2-195-2, (E)-2-(4-(benzyloxy)-2,6-dichlorobenzylidene)hydrazine-1-carboximidamide acetate] |  |  | 24.1 | 76 |
